Drawing on PubChem BioAssay AID1845204 (Molecular Pharmacology Branch, DTP, NCI, 2023), this text covers IC50 and viability, T/C for four compounds.

The subject of the test is HSSY-II tumor spheroid viability. The experiment in a line: Anticancer human tumor HSSY-II cell line growth inhibition.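 For all read-outs here: spheroids exposed to compounds for seven days before reading.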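 For viability, T/C: percent of DMSO vehicle control viability so 100% = untreated level.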 To be noted: spheroids with HUVEC and MSC; for viability, T/C: stronger effect = lower value. Summed up: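 Complex spheroids of malignant cells with endothelial cells and mesenchymal stem cells; agents alone or combined, from near clinical Cmax (or 10 microM if unknown) down in half-log steps, 0.25% DMSO final.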

[1] abbreviates: curve of first compound, second compound 0.003 µM.
Setting [2] is: curve of first compound, second compound 0.00949 µM.
[3] abbreviates: curve of first compound, second compound 0.03 µM.
The mark [4] stands for this setting: curve of first compound, second compound 0.0949 µM.
Setting [5] is: curve of first compound, second compound 0.3 µM.
[6] abbreviates: second compound 0.003 µM, first compound 0.0316 µM.
Where [7] appears, read: second compound 0.003 µM, first compound 0.1 µM.
Setting [8] is: second compound 0.003 µM, first compound 0.316 µM.
The mark [9] stands for this setting: second compound 0.003 µM, first compound 1 µM.
Setting [10] is: second compound 0.003 µM, first compound 3.16 µM.
Setting [11] is: second compound 0.003 µM, first compound 10 µM.
Setting [12] is: second compound 0.00949 µM, first compound 0.0316 µM.
[13] abbreviates: second compound 0.00949 µM, first compound 0.1 µM.
Where [14] appears, read: second compound 0.00949 µM, first compound 0.316 µM.
Where [15] appears, read: second compound 0.00949 µM, first compound 1 µM.
Setting [16] is: second compound 0.00949 µM, first compound 3.16 µM.
Where [17] appears, read: second compound 0.00949 µM, first compound 10 µM.
[18] abbreviates: second compound 0.03 µM, first compound 0.0316 µM.
Where [19] appears, read: second compound 0.03 µM, first compound 0.1 µM.
[20] abbreviates: second compound 0.03 µM, first compound 0.316 µM.
Setting [21] is: second compound 0.03 µM, first compound 1 µM.
Setting [22] is: second compound 0.03 µM, first compound 3.16 µM.
Where [23] appears, read: second compound 0.03 µM, first compound 10 µM.
The mark [24] stands for this setting: second compound 0.0949 µM, first compound 0.0316 µM.
Setting [25] is: second compound 0.0949 µM, first compound 0.1 µM.
[26] abbreviates: second compound 0.0949 µM, first compound 0.316 µM.
[27] abbreviates: second compound 0.0949 µM, first compound 1 µM.
Setting [28] is: second compound 0.0949 µM, first compound 3.16 µM.
Setting [29] is: second compound 0.0949 µM, first compound 10 µM.
The mark [30] stands for this setting: second compound 0.3 µM, first compound 0.0316 µM.
[31] abbreviates: second compound 0.3 µM, first compound 0.1 µM.
[32] abbreviates: second compound 0.3 µM, first compound 0.316 µM.
[33] abbreviates: second compound 0.3 µM, first compound 1 µM.
[34] abbreviates: second compound 0.3 µM, first compound 3.16 µM.
[35] abbreviates: second compound 0.3 µM, first compound 10 µM.

Where “and” joins values, the source holds several entries; their conditions need not be identical. Equal values may be shown once.

Take `COc1cc(C)[nH]c(=O)c1CN1CCc2c(Cl)cc(C(OC)C3COC3)c(Cl)c2C1=O` (stereo unspecified) + CC[C@@]1(O)C(=O)OCc2c1cc1n(c2=O)Cc2cc3c(CN(C)C)c(O)ccc3nc2-1: the IC50 under setting [1] is over 10000 nM; the 50% inhibitory concentration (IC50) under setting [2] was 438 nM; the IC50 under setting [3] is under 31.6 nM; the IC50 under setting [4] was under 31.6 nM; the IC50 under setting [5] was under 31.6 nM. Besides, the viability, T/C is 85.5% under setting [6]; 83.2% under setting [7]; 69.1% under setting [8]; 63% under setting [9]; 63.7% under setting [10]; 56.1% under setting [11]. Moreover, the viability, T/C under setting [12] is 58.4%; the viability, T/C under setting [13] was 59.4%; the viability, T/C under setting [14] was 50.4%; the viability, T/C under setting [15] was 46%; the viability, T/C under setting [16] is 42.4%; the viability, T/C under setting [17] was 42.8%. Besides, the viability, T/C is, setting by setting: under setting [18], 13.6%; under setting [19], 10.9%; under setting [20], 13.4%; under setting [21], 13.3%; under setting [22], 14.6%; under setting [23], 15.1%. The viability, T/C under setting [24] was 9.27%; the viability, T/C under setting [25] was 10.6%; the viability, T/C under setting [26] is 9.37%; the viability, T/C under setting [27] is 11%; the viability, T/C under setting [28] was 11.4%; the viability, T/C under setting [29] was 13.1%. The viability, T/C by setting is: under setting [30], 6.06%; under setting [31], 6.42%; under setting [32], 6.42%; under setting [33], 7.59%; under setting [34], 8.41%; under setting [35], 8.2%.
`COc1ccc([C@@H](O)c2cc(-c3ncnc4cc(N5CCOCC5)ccc34)c(F)cc2Cl)nn1` + CC[C@@]1(O)C(=O)OCc2c1cc1n(c2=O)Cc2cc3c(CN(C)C)c(O)ccc3nc2-1: the IC50 was 1380 nM under setting [1]; 902 nM under setting [2]; under 31.6 nM under setting [3]; under 31.6 nM under setting [4]; under 31.6 nM under setting [5]. In addition, the viability, T/C by setting is: under setting [6], 88.8%; under setting [7], 89.5%; under setting [8], 74.8%; under setting [9], 61.5%; under setting [10], 26.5%; under setting [11], 8.32%. The viability, T/C is 62.6% under setting [12]; 65.5% under setting [13]; 63.8% under setting [14]; 48.6% under setting [15]; 11.7% under setting [16]; 3.18% under setting [17]. In addition, the viability, T/C is, setting by setting: under setting [18], 10.3%; under setting [19], 12.2%; under setting [20], 10.3%; under setting [21], 6.74%; under setting [22], 2.41%; under setting [23], 1.53%. In addition, the viability, T/C under setting [24] was 9.13%; the viability, T/C under setting [25] was 8.32%; the viability, T/C under setting [26] is 7.14%; the viability, T/C under setting [27] was 2.81%; the viability, T/C under setting [28] was 1.55%; the viability, T/C under setting [29] is 1.22%. Also, the viability, T/C reads like this: under setting [30], 6.23%; under setting [31], 5.53%; under setting [32], 4.4%; under setting [33], 2.36%; under setting [34], 1.09%; under setting [35], 0.71%.
`CC1COCCN1c1cc(-c2ccnn2C)c2ccnc(-c3ccn[nH]3)c2n1` (stereo unspecified): the viability, T/C (compound 0.0316 µM) was 13.6% and 27.8% and 22.3%; the viability, T/C (compound 0.1 µM) is 6.39% and 6.26% and 6.5%; the viability, T/C (compound 0.316 µM) was 4.82% and 2.71% and 2.97%; the viability, T/C (compound 1 µM) was 4.16% and 1.96% and 2.24%; the viability, T/C (compound 3.16 µM) is 4.41% and 2.11% and 2.4%; the viability, T/C (compound 10 µM) is 6.25% and 2.76% and 2.66%. For the same compound, the IC50 (curve of compound) was under 31.6 nM.
For `COc1cc2c(cc1O)CCNC21CSC2c3c(OC(C)=O)c(C)c4c(c3C(COC1=O)N1C(O)C3Cc5cc(C)c(OC)c(O)c5C(C21)N3C)OCO4` (stereo unspecified), the viability, T/C (compound 0.0003 µM) was 16.7% [middle of 10 runs]; the viability, T/C (compound 0.000949 µM) was 3.25% [middle of 9 runs]; the viability, T/C (compound 0.003 µM) was 0.2% [middle of 7 runs]. For the setting “compound alone, run of 12/12/2019”, the IC50 was 0.187 nM [middle of 10 runs].

The IC50 is the concentration needed to halve the response being measured. In general, viability, T/C refers to the result in the treated group divided by that in the control group, in per cent.
